{
  "source": "paper PMC7163368",
  "about": "(British Journal of Clinical Pharmacology, 2020)",
  "key": {"[1]": {"assay": "Safety and tolerability: adverse events, laboratory, ECG, physical examination", "format": "in vivo, human"}, "[2]": {"details": "28‐day toxicity study in rats; cited from earlier work"}, "[3]": {"details": "s.c. single dose 120 mg (n = 5)"}},
  "data": [
    {"smiles": "O=C(CN[C@@H]1CCNC1)N1CCC[C@H]1B(O)O", "note": "[dutogliptin]", "values": [
      {"measurement": "Induration, related: subjects with at least 1 AE", "setting": "[1]; s.c. multidose 90 mg (n = 5)", "value": "4 (80%)"},
      {"measurement": "Local AEs, related: subjects with at least 1 AE", "setting": "[1]; s.c. multidose 90 mg (n = 5)", "value": "5 (100%)"},
      {"measurement": "Other local AEs, related: subjects with at least 1 AE", "setting": "[1]; s.c. multidose 90 mg (n = 5)", "value": 0},
      {"measurement": "Other systemic AEs (dizziness and nausea), related: subjects with at least 1 AE", "setting": "[1]; s.c. multidose 90 mg (n = 5)", "value": "2 (40%)"},
      {"measurement": "Pain with touching, related: subjects with at least 1 AE", "setting": "[1]; s.c. multidose 90 mg (n = 5)", "value": "2 (40%)"},
      {"measurement": "Pain without touching, related: subjects with at least 1 AE", "setting": "[1]; s.c. multidose 90 mg (n = 5)", "value": "1 (20%)"},
      {"measurement": "Swelling, related: subjects with at least 1 AE", "setting": "[1]; s.c. multidose 90 mg (n = 5)", "value": "1 (20%)"},
      {"measurement": "Systemic AEs, related: subjects with at least 1 AE", "setting": "[1]; s.c. multidose 90 mg (n = 5)", "value": "4 (80%)"},
      {"measurement": "All AEs, related: subjects with at least 1 AE", "setting": "[1]; s.c. multidose 120 mg (n = 5)", "value": "5 (100%)"},
      {"measurement": "Erythema, related: subjects with at least 1 AE", "setting": "[1]; s.c. multidose 120 mg (n = 5)", "value": "5 (100%)"},
      {"measurement": "Fatigue, related: subjects with at least 1 AE", "setting": "[1]; s.c. multidose 120 mg (n = 5)", "value": 0},
      {"measurement": "Headache, related: subjects with at least 1 AE", "setting": "[1]; s.c. multidose 120 mg (n = 5)", "value": 0},
      {"measurement": "Hematoma, related: subjects with at least 1 AE", "setting": "[1]; s.c. multidose 120 mg (n = 5)", "value": 0},
      {"measurement": "Induration, related: subjects with at least 1 AE", "setting": "[1]; s.c. multidose 120 mg (n = 5)", "value": "3 (60%)"},
      {"measurement": "Local AEs, related: subjects with at least 1 AE", "setting": "[1]; s.c. multidose 120 mg (n = 5)", "value": "5 (100%)"},
      {"measurement": "Other local AEs, related: subjects with at least 1 AE", "setting": "[1]; s.c. multidose 120 mg (n = 5)", "value": 0},
      {"measurement": "Other systemic AEs, related: subjects with at least 1 AE", "setting": "[1]; s.c. multidose 120 mg (n = 5)", "value": 0},
      {"measurement": "Pain with touching, related: subjects with at least 1 AE", "setting": "[1]; s.c. multidose 120 mg (n = 5)", "value": "2 (40%)"},
      {"measurement": "Pain without touching, related: subjects with at least 1 AE", "setting": "[1]; s.c. multidose 120 mg (n = 5)", "value": "2 (40%)"},
      {"measurement": "Swelling, related: subjects with at least 1 AE", "setting": "[1]; s.c. multidose 120 mg (n = 5)", "value": 0},
      {"measurement": "Systemic AEs, related: subjects with at least 1 AE", "setting": "[1]; s.c. multidose 120 mg (n = 5)", "value": 0},
      {"measurement": "All AEs, related: subjects with at least 1 AE", "setting": "[1]; s.c. single dose 30 mg (n = 5)", "value": "5 (100%)"},
      {"measurement": "Erythema, related: subjects with at least 1 AE", "setting": "[1]; s.c. single dose 30 mg (n = 5)", "value": "5 (100%)"},
      {"measurement": "Fatigue, related: subjects with at least 1 AE", "setting": "[1]; s.c. single dose 30 mg (n = 5)", "value": 0},
      {"measurement": "Headache, related: subjects with at least 1 AE", "setting": "[1]; s.c. single dose 30 mg (n = 5)", "value": 0},
      {"measurement": "Hematoma, related: subjects with at least 1 AE", "setting": "[1]; s.c. single dose 30 mg (n = 5)", "value": 0},
      {"measurement": "Induration, related: subjects with at least 1 AE", "setting": "[1]; s.c. single dose 30 mg (n = 5)", "value": 0},
      {"measurement": "Local AEs, related: subjects with at least 1 AE", "setting": "[1]; s.c. single dose 30 mg (n = 5)", "value": "5 (100%)"},
      {"measurement": "Other local AEs, related: subjects with at least 1 AE", "setting": "[1]; s.c. single dose 30 mg (n = 5)", "value": 0},
      {"measurement": "Other systemic AEs, related: subjects with at least 1 AE", "setting": "[1]; s.c. single dose 30 mg (n = 5)", "value": 0},
      {"measurement": "Pain with touching, related: subjects with at least 1 AE", "setting": "[1]; s.c. single dose 30 mg (n = 5)", "value": "1 (20%)"},
      {"measurement": "Pain without touching, related: subjects with at least 1 AE", "setting": "[1]; s.c. single dose 30 mg (n = 5)", "value": 0},
      {"measurement": "Swelling, related: subjects with at least 1 AE", "setting": "[1]; s.c. single dose 30 mg (n = 5)", "value": 0},
      {"measurement": "Systemic AEs, related: subjects with at least 1 AE", "setting": "[1]; s.c. single dose 30 mg (n = 5)", "value": 0},
      {"measurement": "All AEs, related: subjects with at least 1 AE", "setting": "[1]; s.c. single dose 60 mg (n = 5)", "value": "5 (100%)"},
      {"measurement": "Erythema, related: subjects with at least 1 AE", "setting": "[1]; s.c. single dose 60 mg (n = 5)", "value": "5 (100%)"},
      {"measurement": "Fatigue, related: subjects with at least 1 AE", "setting": "[1]; s.c. single dose 60 mg (n = 5)", "value": 0},
      {"measurement": "Headache, related: subjects with at least 1 AE", "setting": "[1]; s.c. single dose 60 mg (n = 5)", "value": 0},
      {"measurement": "Hematoma, related: subjects with at least 1 AE", "setting": "[1]; s.c. single dose 60 mg (n = 5)", "value": 0},
      {"measurement": "Induration, related: subjects with at least 1 AE", "setting": "[1]; s.c. single dose 60 mg (n = 5)", "value": "1 (20%)"},
      {"measurement": "Local AEs, related: subjects with at least 1 AE", "setting": "[1]; s.c. single dose 60 mg (n = 5)", "value": "5 (100%)"},
      {"measurement": "Other local AEs, related: subjects with at least 1 AE", "setting": "[1]; s.c. single dose 60 mg (n = 5)", "value": 0},
      {"measurement": "Other systemic AEs, related: subjects with at least 1 AE", "setting": "[1]; s.c. single dose 60 mg (n = 5)", "value": 0},
      {"measurement": "Pain with touching, related: subjects with at least 1 AE", "setting": "[1]; s.c. single dose 60 mg (n = 5)", "value": 0},
      {"measurement": "Pain without touching, related: subjects with at least 1 AE", "setting": "[1]; s.c. single dose 60 mg (n = 5)", "value": 0},
      {"measurement": "Swelling, related: subjects with at least 1 AE", "setting": "[1]; s.c. single dose 60 mg (n = 5)", "value": 0},
      {"measurement": "Systemic AEs, related: subjects with at least 1 AE", "setting": "[1]; s.c. single dose 60 mg (n = 5)", "value": 0},
      {"measurement": "All AEs, related: subjects with at least 1 AE", "setting": "[1]; s.c. single dose 90 mg (n = 5)", "value": "5 (100%)"},
      {"measurement": "Erythema, related: subjects with at least 1 AE", "setting": "[1]; s.c. single dose 90 mg (n = 5)", "value": "5 (100%)"},
      {"measurement": "Fatigue, related: subjects with at least 1 AE", "setting": "[1]; s.c. single dose 90 mg (n = 5)", "value": 0},
      {"measurement": "Headache, related: subjects with at least 1 AE", "setting": "[1]; s.c. single dose 90 mg (n = 5)", "value": 0},
      {"measurement": "Hematoma, related: subjects with at least 1 AE", "setting": "[1]; s.c. single dose 90 mg (n = 5)", "value": "1 (20%)"},
      {"measurement": "Induration, related: subjects with at least 1 AE", "setting": "[1]; s.c. single dose 90 mg (n = 5)", "value": 0},
      {"measurement": "Local AEs, related: subjects with at least 1 AE", "setting": "[1]; s.c. single dose 90 mg (n = 5)", "value": "5 (100%)"},
      {"measurement": "Other local AEs, related: subjects with at least 1 AE", "setting": "[1]; s.c. single dose 90 mg (n = 5)", "value": 0},
      {"measurement": "Other systemic AEs, related: subjects with at least 1 AE", "setting": "[1]; s.c. single dose 90 mg (n = 5)", "value": 0},
      {"measurement": "Pain with touching, related: subjects with at least 1 AE", "setting": "[1]; s.c. single dose 90 mg (n = 5)", "value": 0},
      {"measurement": "Pain without touching, related: subjects with at least 1 AE", "setting": "[1]; s.c. single dose 90 mg (n = 5)", "value": 0},
      {"measurement": "Swelling, related: subjects with at least 1 AE", "setting": "[1]; s.c. single dose 90 mg (n = 5)", "value": "1 (20%)"},
      {"measurement": "Systemic AEs, related: subjects with at least 1 AE", "setting": "[1]; s.c. single dose 90 mg (n = 5)", "value": 0},
      {"measurement": "All AEs, related: subjects with at least 1 AE", "setting": "[1]; [3]", "value": "5 (100%)"},
      {"measurement": "Erythema, related: subjects with at least 1 AE", "setting": "[1]; [3]", "value": "4 (80%)"},
      {"measurement": "Fatigue, related: subjects with at least 1 AE", "setting": "[1]; [3]", "value": 0},
      {"measurement": "Headache, related: subjects with at least 1 AE", "setting": "[1]; [3]", "value": "1 (20%)"},
      {"measurement": "Hematoma, related: subjects with at least 1 AE", "setting": "[1]; [3]", "value": "1 (20%)"},
      {"measurement": "Induration, related: subjects with at least 1 AE", "setting": "[1]; [3]", "value": "2 (40%)"},
      {"measurement": "Local AEs, related: subjects with at least 1 AE", "setting": "[1]; [3]", "value": "4 (80%)"},
      {"measurement": "Other local AEs (burning sensation at the injection site), related: subjects with at least 1 AE", "setting": "[1]; [3]", "value": "1 (20%)"},
      {"measurement": "Other systemic AEs, related: subjects with at least 1 AE", "setting": "[1]; [3]", "value": 0},
      {"measurement": "Pain with touching, related: subjects with at least 1 AE", "setting": "[1]; [3]", "value": 0},
      {"measurement": "Pain without touching, related: subjects with at least 1 AE", "setting": "[1]; [3]", "value": 0},
      {"measurement": "Swelling, related: subjects with at least 1 AE", "setting": "[1]; [3]", "value": 0},
      {"measurement": "Systemic AEs, related: subjects with at least 1 AE", "setting": "[1]; [3]", "value": "1 (20%)"},
      {"measurement": "No observed adverse effects level", "setting": "[2]", "value": 30, "unit": "mg/kg"}
    ]}
  ]
}
